# Assays:
# Format in all cases: cell-based
# [1] = system: NOX-1 gene expression in primary mouse islets; assay: PIC-induced NOX-1 gene expression (RT-PCR)
# Excerpt: Human donor islets were obtained from integrated islet distribution project (http://iidp.coh.org) and cultured in CMRL media (Mediatech, Manassas, Va.). Mouse islets were freshly isolated from 8-week old male C57BL/6J mice (Jackson Laboratory, Bar Harbor, Me.) by common bile duct cannulation and collagenase digestion. Islets were hand picked prior to use. […] Total RNA was isolated using the RNeasy Mini Kit (Qiagen, Valencia, Calif.) and cDNA prepared using MMLV reverse transcriptase (Life Technologies) and random hexamers (Life Technologies). Jump Start Taq polymerase (Life Technologies) was used in PCR reactions. Primers used with SYBR Green 1 (Molecular Probes, Carlsbad, Calif.) probes: […] GAPDH forward [NT] ID NO: 3); GAPDH reverse [NT] NO: 4). RT-PCR reactions were performed in triplicate (CFX96 Bio-Rad, Hercules, Calif.). Taqman primers (Life Technologies) were also used.
# [2] = system: NOX-1 gene expression in primary human donor islets; assay: PIC-induced NOX-1 gene expression (RT-PCR); details: 1 μM ML171
# Protocol: Total RNA was isolated using the RNeasy Mini Kit (Qiagen, Valencia, Calif.) and cDNA prepared using MMLV reverse transcriptase (Life Technologies) and random hexamers (Life Technologies). Jump Start Taq polymerase (Life Technologies) was used in PCR reactions. […] RT-PCR reactions were performed in triplicate (CFX96 Bio-Rad, Hercules, Calif.). Taqman primers (Life Technologies) were also used. Data was normalized to the housekeeping gene GAPDH and analyzed using the 2-ΔΔCT method.
# [3] = system: beta cells; assay: Pro-caspase 3 cleavage after PIC, beta cell survival; details: C1 100 nM, ML171 10 μM
# Protocol: Loss of beta cell viability in response to inflammatory cytokines was assessed by measurement of caspase 3 activation and quantified microscopy. […] Measured by pro-caspase 3 cleavage (A) or quantified microscopy of YO-PRO-1 stained cells (B). […] Shown are RFU from fluorescent capase3 substrate, ##p<0.01 relative to control; *p<0.05; **p<0.01 relative to PIC (A) and Microscopic apoptotic index ###p<0.001 relative to control; ***p<0.001; **p<0.01 relative to PIC (B).
smiles,measurement,setting,value
"CC(=O)c1ccc2c(c1)Nc1ccccc1S2 [ML171, 2-acetylphenothiazine]",inhibition of PIC-induced expression of NOX-1,"[1]; 1 μM, 24 hours",84%
same,induction of gene NOX-1 by PIC,"[1]; NCTT-1 100 nM, ML171 1 μM",attenuated
same,inhibition of PIC-induced expression of NOX-1,[2],50%
same,"inflammatory cytokine-induced cell death, pro-caspase 3 cleavage",[3],significantly protected

# Reference: patent publication US9914910B2, “Methods of preserving and protecting pancreatic beta cells and treating or preventing diabetes by inhibiting NOX-1” (Eastern Virginia Medical School, priority 2013, dated 2018)
